Laboratory results taken from PMC4559079 (Journal of Hematology & Oncology, 2015).
Several values for one entry are separate records, joined by “and”; a condition that tells them apart may be missing. Equal entries are not always repeated. Entries after “also recorded” stand apart in the source; their conditions may differ. Where two headings read alike, the source gives them in different places.

Assays:
[1] = set-up: method as in PMID 25377318; conditions: Western patients, cited from earlier work
[2] = Plasma PK of ixazomib given with lenalidomide–dexamethasone, phase 1 study in East Asian patients with RRMM (LC/MS/MS, non-compartmental analysis); format: in vivo, human; conditions: for Accumulation ratio: day 15 AUC0–168/day 1 AUC0–168; for DN AUC0–168 / DN C max: dose-normalized; for Tmax / half-life / Cmax / AUC(0-t): human, plasma; for AUC(0-t): read-out: AUC0–168
Procedure: Plasma PK parameters were calculated for patients in the safety population following administration of ixazomib on cycle 1 day 1 and/or cycle 1 day 15 provided sufficient concentration–time data were available, the patient had received the protocol-specified ixazomib dosing regimen during cycle 1, and no excluded concomitant medications were received during the PK sampling period. PK parameters were estimated using non-compartmental analysis methods from the ixazomib concentration versus time data. The analyses were performed using Phoenix WinNonlin version 6.2 (Pharsight, Princeton, NJ). PK parameters were summarized, as appropriate, using descriptive statistics. DN AUC data in East Asian patients were compared with data for Western patients, pooled from three phase 1/2 trials of patients with RRMM (NCT00963820), NDMM (NCT01217957), and relapsed/refractory AL amyloidosis (NCT01318902).

[3] = ixazomib with lenalidomide and dexamethasone; Western patients with NDMM; cited from earlier work
[4] = set-up: method as in PMID 24904120, PMID 25456369; conditions: Western patients, pooled from three studies, single agent or with lenalidomide–dexamethasone, cited from earlier work
[5] = cycle 1 day 1, Chinese, geometric mean (% CV)
[6] = cycle 1 day 1, Korean, geometric mean (% CV)
[7] = cycle 1 day 1, Other, geometric mean (% CV)
[8] = cycle 1 day 15, Chinese, geometric mean (% CV)
[9] = cycle 1 day 15, Korean, geometric mean (% CV)
[10] = cycle 1 day 15, Other, geometric mean (% CV)
[11] = po, cycle 1 day 1, Chinese, geometric mean (% CV), 4.0 mg oral + lenalidomide–dexamethasone
[12] = po, cycle 1 day 1, Korean, geometric mean (% CV), 4.0 mg oral + lenalidomide–dexamethasone
[13] = po, cycle 1 day 1, Other, geometric mean (% CV), 4.0 mg oral + lenalidomide–dexamethasone
[14] = po, cycle 1 day 1, Overall, geometric mean (% CV), 4.0 mg oral + lenalidomide–dexamethasone
[15] = po, cycle 1 day 15, Chinese, geometric mean (% CV), 4.0 mg oral + lenalidomide–dexamethasone
[16] = po, cycle 1 day 15, Korean, geometric mean (% CV), 4.0 mg oral + lenalidomide–dexamethasone
[17] = po, cycle 1 day 15, Other, geometric mean (% CV), 4.0 mg oral + lenalidomide–dexamethasone
[18] = po, cycle 1 day 15, Overall, geometric mean (% CV), 4.0 mg oral + lenalidomide–dexamethasone

SMILES: CC(C)C[C@H](NC(=O)CNC(=O)c1cc(Cl)ccc1Cl)B(O)O [ixazomib]
- MTD [1]: 2.97 mg/m^2
- MTD, equated to fixed dose ([1]; equates to 2.97 mg/m^2): 5.5 mg
- DLT-evaluable patients experiencing DLTs (cycle 1, 4.0 mg ixazomib with lenalidomide–dexamethasone): 2 of 24
- dose-limiting toxicities in the first six patients (starting dose 4.0 mg ixazomib, cycle 1, with lenalidomide–dexamethasone): No dose-limiting toxicities; also recorded: no DLTs
- recommended phase 2/3 dose (RP2/3D) (weekly oral ixazomib with lenalidomide–dexamethasone, East Asian patients with RRMM): 4.0 mg
- difference in geometric mean DN AUC0–168, East Asian vs Western patients (higher) ([2]; day 1 of dosing, 194 vs 152 ng*h/mL/mg): 28%
- difference in geometric mean DN AUC0–168, East Asian vs Western patients (higher) ([2]; day 15, 401 vs 269 ng*h/mL/mg): 49%
- Accumulation ratio ([2]; Chinese, geometric mean (% CV)): 2.38 (30)
- Accumulation ratio ([2]; Korean, geometric mean (% CV)): 2.34 (40)
- Accumulation ratio ([2]; Other, geometric mean (% CV)): 2.56 (33)
- DN AUC0–168 [2, 5]: 233 (83) h*ng/mL/mg
- DN C max [2, 5]: 12.6 (102) ng/mL/mg
- DN AUC0–168 [2, 6]: 157 (47) h*ng/mL/mg
- DN C max [2, 6]: 5.53 (99) ng/mL/mg
- DN AUC0–168 [2, 7]: 180 (63) h*ng/mL/mg
- DN C max [2, 7]: 8.93 (118) ng/mL/mg
- DN AUC0–168 ([2]; cycle 1 day 1, Overall East Asian, geometric mean (% CV)): 194 [78 % CV] h*ng/mL/mg and 194 (78) h*ng/mL/mg
- DN C max ([2]; cycle 1 day 1, Overall, geometric mean (% CV)): 8.45 (115) ng/mL/mg
- DN AUC0–168 [2, 8]: 438 (39) h*ng/mL/mg
- DN C max [2, 8]: 12.6 (71) ng/mL/mg
- DN AUC0–168 [2, 9]: 362 (49) h*ng/mL/mg
- DN C max [2, 9]: 9.51 (67) ng/mL/mg
- DN AUC0–168 [2, 10]: 383 (81) h*ng/mL/mg
- DN C max [2, 10]: 10.6 (97) ng/mL/mg
- DN AUC0–168 ([2]; cycle 1 day 15, Overall East Asian, geometric mean (% CV)): 401 [48 % CV] h*ng/mL/mg and 401 (48) h*ng/mL/mg
- DN C max ([2]; cycle 1 day 15, Overall, geometric mean (% CV)): 11.0 (72) ng/mL/mg
- Tmax ([2]; oral, days 1 and 15 of cycle 1, East Asian patients, with lenalidomide–dexamethasone, read-out: median time to maximum plasma concentration): 1.5 to 2 h
- half-life ([2]; oral, geometric mean, after multiple dosing, overall East Asian patients, read-out: terminal half-life (converted)): 146 h
- half-life ([2]; oral, terminal disposition phase, cycle 1 day 15, Chinese, geometric mean (% CV), read-out: t1/2 (converted)): 148 h
- half-life ([2]; oral, terminal disposition phase, cycle 1 day 15, Korean, geometric mean (% CV), read-out: t1/2 (converted)): 145 h
- half-life ([2]; oral, terminal disposition phase, cycle 1 day 15, Other, geometric mean (% CV), read-out: t1/2 (converted)): 148 h
- half-life ([2]; oral, terminal disposition phase, cycle 1 day 15, Overall, geometric mean (% CV), read-out: t1/2 (converted)): 147 h
- Cmax [2, 11]: 50.6 ng/mL
- AUC(0-t) [2, 11]: 933 ng·h/mL
- Tmax ([2]; po, cycle 1 day 1, Chinese, median (range), 4.0 mg oral + lenalidomide–dexamethasone, read-out: T max): 1.04 h
- Cmax [2, 12]: 22.1 ng/mL
- AUC(0-t) [2, 12]: 630 ng·h/mL
- Tmax ([2]; po, cycle 1 day 1, Korean, median (range), 4.0 mg oral + lenalidomide–dexamethasone, read-out: T max): 1.95 h
- Cmax [2, 13]: 35.7 ng/mL
- AUC(0-t) [2, 13]: 720 ng·h/mL
- Tmax ([2]; po, cycle 1 day 1, Other, median (range), 4.0 mg oral + lenalidomide–dexamethasone, read-out: T max): 1.75 h
- Cmax [2, 14]: 33.8 ng/mL
- AUC(0-t) [2, 14]: 776 ng·h/mL
- Tmax ([2]; po, cycle 1 day 1, Overall, median (range), 4.0 mg oral + lenalidomide–dexamethasone, read-out: T max): 1.5 h
- Cmax [2, 15]: 50.3 ng/mL
- AUC(0-t) [2, 15]: 1750 ng·h/mL
- Tmax ([2]; po, cycle 1 day 15, Chinese, median (range), 4.0 mg oral + lenalidomide–dexamethasone, read-out: T max): 2 h
- Cmax [2, 16]: 38 ng/mL
- AUC(0-t) [2, 16]: 1450 ng·h/mL
- Tmax ([2]; po, cycle 1 day 15, Korean, median (range), 4.0 mg oral + lenalidomide–dexamethasone, read-out: T max): 2 h
- Cmax [2, 17]: 42.4 ng/mL
- AUC(0-t) [2, 17]: 1530 ng·h/mL
- Tmax ([2]; po, cycle 1 day 15, Other, median (range), 4.0 mg oral + lenalidomide–dexamethasone, read-out: T max): 1.25 h
- Cmax [2, 18]: 43.9 ng/mL
- AUC(0-t) [2, 18]: 1610 ng·h/mL
- Tmax ([2]; po, cycle 1 day 15, Overall, median (range), 4.0 mg oral + lenalidomide–dexamethasone, read-out: T max): 2 h
- recommended phase 2/3 dose (RP2/3D) [3]: 4.0 mg
- geometric mean DN AUC0–168 ([4]; day 1 of dosing): 152 [95 % CV] ng*h/mL/mg
- geometric mean DN AUC0–168 ([4]; day 15): 269 [44 % CV] ng*h/mL/mg
